Measured values reported in the supplement of paper PMC10307832.

Tests used:
Experiment in all cases: relative viability (nuclei count vs DMSO), 5 days (fraction); higher = more cells survive
[1] = compound: CC1=CC=C(C=C1)C(=O)CN2C3=C(CCCC3)SC2=N [Pifithrin_alpha] + C[C@]1(O)C[C@@H](c2nc(-c3ccc4ccc(-c5ccccc5)nc4c3)c3c(N)nccn32)C1 [Linsitinib] (partner 1 µM)
Procedure, shortened: (§1)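 A single step with final 0.05% Triton X-100, 1% formaldehyde and 1 ug/ml Hoechst fixed the cells and stained nuclei 5 days after treatment. Lung cancer cell lines in 1536-well plates had been treated by pin tool the day after seeding with one drug alone or a fixed anchor-drug dose plus five library-drug doses (not always all listed) in √10 steps, and nuclei were counted on 4× images. Relative viability is the ratio of nuclei in treated wells to nuclei in vehicle wells, taken as the median of duplicate plates.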

Axitinib + Decitabine = compound: CNC(=O)c1ccccc1Sc1ccc2c(/C=C/c3ccccn3)n[nH]c2c1 [Axitinib] + Nc1ncn([C@H]2C[C@H](O)[C@@H](CO)O2)c(=O)n1 [Decitabine] (partner 2 µM)
Procedure, shortened: as §1

Axitinib + Foretinib = compound: CNC(=O)c1ccccc1Sc1ccc2c(/C=C/c3ccccn3)n[nH]c2c1 [Axitinib] + COc1cc2c(Oc3ccc(NC(=O)C4(C(=O)Nc5ccc(F)cc5)CC4)cc3F)ccnc2cc1OCCCN1CCOCC1 [Foretinib] (partner 0.25 µM)
Procedure, shortened: as §1

Bemcentinib + Alpelisib = compound: Nc1nc(Nc2ccc3c(c2)CC[C@@H](N2CCCC2)CC3)nn1-c1cc2c(nn1)-c1ccccc1CCC2 [Bemcentinib] + Cc1nc(NC(=O)N2CCC[C@H]2C(N)=O)sc1-c1ccnc(C(C)(C)C(F)(F)F)c1 [Alpelisib] (partner 2 µM)
Procedure, shortened: as §1

| Cell Line | relative viability ([1]; first compound 1 µM) | relative viability ([1]; first compound 3.162 µM) | relative viability ([1]; first compound 10 µM) | relative viability ([1]; first compound 31.62 µM) | relative viability ([1]; first compound 100 µM) | relative viability (Axitinib + Decitabine; first compound 0.005 µM) | relative viability (Axitinib + Decitabine; first compound 0.01581 µM) | relative viability (Axitinib + Decitabine; first compound 0.05 µM) | relative viability (Axitinib + Decitabine; first compound 0.1581 µM) | relative viability (Axitinib + Decitabine; first compound 0.5 µM) | relative viability (Axitinib + Foretinib; first compound 0.005 µM) | relative viability (Axitinib + Foretinib; first compound 0.01581 µM) | relative viability (Axitinib + Foretinib; first compound 0.05 µM) | relative viability (Axitinib + Foretinib; first compound 0.1581 µM) | relative viability (Axitinib + Foretinib; first compound 0.5 µM) | relative viability (Bemcentinib + Alpelisib; first compound 0.04 µM) | relative viability (Bemcentinib + Alpelisib; first compound 0.1265 µM) | relative viability (Bemcentinib + Alpelisib; first compound 0.4 µM) | relative viability (Bemcentinib + Alpelisib; first compound 1.265 µM) | relative viability (Bemcentinib + Alpelisib; first compound 4 µM) |
| --- | --- | --- | --- | --- | --- | --- | --- | --- | --- | --- | --- | --- | --- | --- | --- | --- | --- | --- | --- | --- |
| 201T | 0.956 | 0.792 | 0.744 | 0.689 | 0.731 | 0.866 | 0.803 | 0.851 | 0.872 | 0.878 | 1.07 | 1.06 | 0.972 | 1.17 | 1.21 | 1.01 | 0.987 | 1.03 | 1.08 | 1.04 |
| NCI-H1666 | 0.69 | 0.599 | 0.534 | 0.521 | 0.448 | 0.751 | 0.747 | 0.731 | 0.73 | 0.75 | 1 | 1.03 | 0.995 | 1.02 | 0.935 | 0.869 | 1.05 | 0.941 | 1.02 | 1.02 |
| NCI-H1993 | – | 0.669 | 0.741 | 0.684 | 0.714 | 0.709 | 0.634 | 0.609 | 0.631 | 0.668 | 0.771 | 0.731 | 0.823 | 0.956 | 0.845 | 0.74 | 0.74 | 0.694 | 0.712 | 0.687 |
| NCI-H460 | 0.764 | 0.795 | 0.906 | – | 0.563 | 0.585 | 0.464 | 0.528 | 0.535 | 0.585 | 1.01 | 0.917 | 0.974 | 0.995 | 1.05 | 0.595 | 0.556 | 0.487 | 0.602 | 0.584 |
